Laboratory results reported in ChEMBL document CHEMBL1145224, “Novel 1beta-methylcarbapenems with isoxazoloethenyl moieties containing carboxylic acid sodium salt” (Bioorg Med Chem Lett, 2005).
Converted amounts (≈) assume the structure as drawn.

Key:
Pseudomonas aeruginosa [1] = test: Minimum inhibitory concentration against Pseudomonas aeruginosa 1771M strain; assay type: functional
Escherichia coli [2] = test: Minimum inhibitory concentration against Escherichia coli 1507 E strain; assay type: functional
Pseudomonas aeruginosa [3] = test: Minimum inhibitory concentration against Pseudomonas aeruginosa 1592E strain; assay type: functional
Streptococcus pneumoniae [4] = test: Minimum inhibitory concentration against Streptococcus pneumoniae (n=22); (Range = 0.008-0.25); assay type: functional
[5] = Clearance value at a single intravenous administration of 20 mg/kg in rat; assay type: ADME, organism-based; design: dose 20 mg/kg, route intravenous; details: in vivo
Moraxella catarrhalis [6] = test: Minimum inhibitory concentration against Moraxella catarrhalis (n=22); (Range=0.015-0.06); assay type: functional
Staphylococcus aureus [7] = test: Minimum inhibitory concentration against […] 503 strain; assay type: functional
Staphylococcus aureus [8] = test: Minimum inhibitory concentration against […] 285 strain; assay type: functional
Pseudomonas aeruginosa [9] = test: Minimum inhibitory concentration against was determined against Pseudomonas aeruginosa 9027 strain; assay type: functional
Klebsiella pneumoniae [10] = test: Minimum inhibitory concentration against Klebsiella pneumoniae (n=30); (Range = 0.015-0.25); assay type: functional
[11] = Half life at a single intravenous administration of 20 mg/kg in rat; assay type: ADME, organism-based; design: dose 20 mg/kg, route intravenous; details: in vivo
[12] = Clearance value at a single intravenous administration of 5 mg/kg in dog; assay type: ADME, organism-based, Canis lupus familiaris; design: dose 5 mg/kg, route intravenous; details: in vivo
Enterobacter cloacae = test: Minimum inhibitory concentration against Enterobacter cloacae 1321E strain; assay type: functional
Pseudomonas aeruginosa [13] = test: Minimum inhibitory concentration against Pseudomonas aeruginosa (n=60); (Range=0.06-128); assay type: functional
Streptococcus pyogenes = test: Minimum inhibitory concentration against Streptococcus pyogenes 308A strain; assay type: functional
[14] = Area under concentration time at a single intravenous administration of 20 mg/kg in rat; assay type: ADME, organism-based; design: dose 20 mg/kg, route intravenous; details: in vivo
Escherichia coli [15] = test: Minimum inhibitory concentration against Escherichia coli 078 strain; assay type: functional
Streptococcus pneumoniae [16] = test: Minimum inhibitory concentration of the compound was determined against Streptococcus pneumoniae (n=22);(Range = 0.008-0.25); assay type: functional
[17] = Area under concentration time at a single intravenous administration of 5 mg/kg in dog; assay type: ADME, organism-based, Canis lupus familiaris; design: dose 5 mg/kg, route intravenous; details: in vivo
Salmonella typhimurium = test: Minimum inhibitory concentration against Salmonella Typhimurium; assay type: functional, Salmonella enterica subsp. enterica serovar Typhimurium; details: Salmonella enterica
[18] = Half life at a single intravenous administration of 5 mg/kg in dog; assay type: ADME, organism-based, Canis lupus familiaris; design: dose 5 mg/kg, route intravenous; details: in vivo
Klebsiella aerogenes = test: Minimum inhibitory concentration against Klebsiella aerogenes 1522E strain; assay type: functional
Klebsiella pneumoniae [19] = test: Minimum inhibitory concentration against Klebsiella pneumoniae (n=30); (Range = 0.03-0.25); assay type: functional
Moraxella catarrhalis [20] = test: Minimum inhibitory concentration against Moraxella catarrhalis (n=22); (Range=0.008-0.6); assay type: functional
Moraxella catarrhalis [21] = test: Minimum inhibitory concentration against Moraxella catarrhalis (n=22); (Range=0.008-0.06); assay type: functional
Pseudomonas aeruginosa [22] = test: Minimum inhibitory concentration against Pseudomonas aeruginosa (n=60); (Range=0.025-128); assay type: functional
Moraxella catarrhalis [23] = test: Minimum inhibitory concentration against Moraxella catarrhalis (n=22); (Range = 0.008-0.12); assay type: functional
Klebsiella pneumoniae [24] = test: Minimum inhibitory concentration against Klebsiella pneumoniae (n=30); (Range=0.008-1); assay type: functional
Pseudomonas aeruginosa [25] = test: Minimum inhibitory concentration against Pseudomonas aeruginosa (n=60); (Range=1-128); assay type: functional
Streptococcus pneumoniae [26] = test: Minimum inhibitory concentration against Streptococcus pneumoniae (n=22); (Range=0.008-1); assay type: functional
Klebsiella pneumoniae [27] = test: Minimum inhibitory concentration against Klebsiella pneumoniae (n=30); (Range = […]); assay type: functional
Moraxella catarrhalis [28] = test: Minimum inhibitory concentration against Moraxella catarrhalis (n=22); (Range=0.008-0.12); assay type: functional
Moraxella catarrhalis [29] = test: Minimum inhibitory concentration against Moraxella catarrhalis (n=22); (Range=0.008-0.25); assay type: functional
Klebsiella pneumoniae [30] = test: Minimum inhibitory concentration against Klebsiella pneumoniae (n=30); (Range=0.06-1); assay type: functional
Moraxella catarrhalis [31] = test: microbe, parasite or virus in culture
Klebsiella pneumoniae [32] = test: Minimum inhibitory concentration against Klebsiella pneumoniae (n=30); (Range=[…]); assay type: functional
Streptococcus pneumoniae [33] = test: Minimum inhibitory concentration against Streptococcus pneumoniae (n=22); (Range = 0.008-0.5); assay type: functional
Pseudomonas aeruginosa [34] = test: microbe, parasite or virus in culture
Pseudomonas aeruginosa [35] = test: Minimum inhibitory concentration against Pseudomonas aeruginosa (n=60); (Range=0.5-128); assay type: functional
Moraxella catarrhalis [36] = test: Minimum inhibitory concentration against Moraxella catarrhalis (n=22); (Range=0.008-0.03); assay type: functional
Klebsiella pneumoniae [37] = test: Minimum inhibitory concentration against Klebsiella pneumoniae (n=30); (Range = 0.015-0.06); assay type: functional

C[C@@H](O)[C@H]1C(=O)N2C(C(=O)O)=C(S[C@@H]3CN[C@H](/C=C/c4cc(C(=O)[O-])no4)C3)[C@H](C)[C@H]12.[Na+]
MIC (Pseudomonas aeruginosa [1]): 0.049 mg/L
MIC (Escherichia coli [2]): 0.025 mg/L
MIC (Pseudomonas aeruginosa [3]): 0.195 mg/L
MIC90 (Streptococcus pneumoniae [4]): 0.12 mg/L
clearance [5]: 0.78 L/h/kg
MIC50 (Moraxella catarrhalis [6]): 0.03 mg/L
MIC90 (Moraxella catarrhalis [6]): 0.06 mg/L
MIC (Staphylococcus aureus [7]): 0.195 mg/L
MIC (Staphylococcus aureus [8]): 0.195 mg/L
MIC (Pseudomonas aeruginosa [9]): 0.195 mg/L
MIC50 (Klebsiella pneumoniae [10]): 0.03 mg/L
MIC90 (Klebsiella pneumoniae [10]): 0.12 mg/L
half-life [11]: 12 min
clearance [12]: 0.36 L/h/kg
MIC (Enterobacter cloacae): 0.025 mg/L
MIC50 (Pseudomonas aeruginosa [13]): 4 mg/L
MIC90 (Pseudomonas aeruginosa [13]): 64 mg/L
MIC (Streptococcus pyogenes): 0.049 mg/L
AUC [14]: 25.3 µg·h/mL
MIC (Escherichia coli [15]): 0.013 mg/L
MIC50 (Streptococcus pneumoniae [16]): 0.008 mg/L
AUC [17]: 14.3 µg·h/mL
MIC (Salmonella typhimurium): 0.049 mg/L
half-life [18]: 41 min
MIC (Klebsiella aerogenes): 0.049 mg/L

C[C@@H](O)[C@H]1C(=O)N2C(C(=O)O)=C(S[C@@H]3CN[C@H](/C=C/c4cc(C(=O)[O-])on4)C3)[C@H](C)[C@H]12.[Na+]
MIC (Pseudomonas aeruginosa [1]): 1.56 mg/L
MIC (Escherichia coli [2]): 0.025 mg/L
MIC (Pseudomonas aeruginosa [3]): 0.391 mg/L
MIC (Staphylococcus aureus [7]): 0.098 mg/L
MIC (Staphylococcus aureus [8]): 0.195 mg/L
MIC (Pseudomonas aeruginosa [9]): 0.195 mg/L
MIC (Enterobacter cloacae): 0.025 mg/L
MIC (Streptococcus pyogenes): 0.007 mg/L
MIC (Escherichia coli [15]): 0.025 mg/L
MIC (Salmonella typhimurium): 0.049 mg/L
MIC (Klebsiella aerogenes): 0.049 mg/L

CC1C(S[C@@H]2CN[C@H](/C=C/c3ccno3)C2)=C(C(=O)O)N2C(=O)[C@H]([C@@H](C)O)[C@@H]12 (single isomer, unassigned)
MIC (Pseudomonas aeruginosa [1]): 0.098 mg/L (≈ 0.242 µM)
MIC (Escherichia coli [2]): 0.025 mg/L (≈ 0.0617 µM)
MIC50 (Klebsiella pneumoniae [19]): 0.06 mg/L (≈ 0.148 µM)
MIC90 (Klebsiella pneumoniae [19]): 0.12 mg/L (≈ 0.296 µM)
MIC (Pseudomonas aeruginosa [3]): 0.195 mg/L (≈ 0.481 µM)
MIC50 (Streptococcus pneumoniae [4]): 0.03 mg/L (≈ 0.074 µM)
MIC90 (Streptococcus pneumoniae [4]): 0.12 mg/L (≈ 0.296 µM)
clearance [5]: 1.08 L/h/kg
MIC (Staphylococcus aureus [7]): 0.098 mg/L (≈ 0.242 µM)
MIC (Staphylococcus aureus [8]): 0.049 mg/L (≈ 0.121 µM)
MIC (Pseudomonas aeruginosa [9]): 0.195 mg/L (≈ 0.481 µM)
MIC90 (Moraxella catarrhalis [20]): 0.03 mg/L (≈ 0.074 µM)
half-life [11]: 16 min
clearance [12]: 1.62 L/h/kg
MIC (Enterobacter cloacae): 0.025 mg/L (≈ 0.0617 µM)
MIC (Streptococcus pyogenes): 0.004 mg/L (≈ 0.00986 µM)
AUC [14]: 18.9 µg·h/mL
MIC (Escherichia coli [15]): 0.025 mg/L (≈ 0.0617 µM)
MIC50 (Moraxella catarrhalis [21]): 0.015 mg/L (≈ 0.037 µM)
AUC [17]: 3.1 µg·h/mL
MIC (Salmonella typhimurium): 0.049 mg/L (≈ 0.121 µM)
MIC50 (Pseudomonas aeruginosa [22]): 8 mg/L (≈ 19.7 µM)
MIC90 (Pseudomonas aeruginosa [22]): 64 mg/L (≈ 158 µM)
half-life [18]: 23 min
MIC (Klebsiella aerogenes): 0.049 mg/L (≈ 0.121 µM)

C[C@@H](O)[C@H]1C(=O)N2C(C(=O)O)=C(S[C@@H]3CN[C@H](C(=O)Nc4cccc(C(=O)O)c4)C3)[C@H](C)[C@H]12 [ERTAPENEM]
MIC50 (Moraxella catarrhalis [23]): 0.015 mg/L (≈ 0.0315 µM)
MIC50 (Klebsiella pneumoniae [24]): 0.03 mg/L (≈ 0.0631 µM)
MIC50 (Pseudomonas aeruginosa [25]): 32 mg/L (≈ 67.3 µM)
MIC90 (Pseudomonas aeruginosa [25]): 128 mg/L (≈ 269 µM)
MIC50 (Streptococcus pneumoniae [26]): 0.5 mg/L (≈ 1.05 µM)
MIC90 (Streptococcus pneumoniae [26]): 1 mg/L (≈ 2.1 µM)
MIC90 (Klebsiella pneumoniae [27]): 0.5 mg/L (≈ 1.05 µM)
MIC90 (Moraxella catarrhalis [28]): 0.03 mg/L (≈ 0.0631 µM)

C[C@@H](O)[C@H]1C(=O)N2C(C(=O)O)=C(SCCNC=N)C[C@H]12 [IMIPENEM ANHYDROUS]
MIC (Pseudomonas aeruginosa [1]): 0.195 mg/L (≈ 0.651 µM)
MIC (Escherichia coli [2]): 0.098 mg/L (≈ 0.327 µM)
MIC (Pseudomonas aeruginosa [3]): 0.781 mg/L (≈ 2.61 µM)
MIC (Staphylococcus aureus [7]): 0.098 mg/L (≈ 0.327 µM)
MIC50 (Moraxella catarrhalis [29]): 0.06 mg/L (≈ 0.2 µM)
MIC (Staphylococcus aureus [8]): 0.013 mg/L (≈ 0.0434 µM)
MIC50 (Klebsiella pneumoniae [30]): 0.12 mg/L (≈ 0.401 µM)
MIC90 (Moraxella catarrhalis [31]): 0.06 mg/L (≈ 0.2 µM)
MIC (Pseudomonas aeruginosa [9]): 0.391 mg/L (≈ 1.31 µM)
MIC90 (Klebsiella pneumoniae [32]): 0.5 mg/L (≈ 1.67 µM)
MIC50 (Streptococcus pneumoniae [33]): 0.12 mg/L (≈ 0.401 µM)
MIC90 (Streptococcus pneumoniae [33]): 0.25 mg/L (≈ 0.835 µM)
MIC (Enterobacter cloacae): 0.098 mg/L (≈ 0.327 µM)
MIC (Streptococcus pyogenes): 0.004 mg/L (≈ 0.0134 µM)
MIC (Escherichia coli [15]): 0.098 mg/L (≈ 0.327 µM)
MIC90 (Pseudomonas aeruginosa [34]): 16 mg/L (≈ 53.4 µM)
MIC (Salmonella typhimurium): 0.781 mg/L (≈ 2.61 µM)
MIC50 (Pseudomonas aeruginosa [35]): 2 mg/L (≈ 6.68 µM)
MIC (Klebsiella aerogenes): 0.195 mg/L (≈ 0.651 µM)

C[C@@H](O)[C@H]1C(=O)N2C(C(=O)O)=C(S[C@@H]3CN[C@H](C(=O)N(C)C)C3)[C@H](C)[C@H]12 [MEROPENEM]
MIC (Pseudomonas aeruginosa [1]): 0.049 mg/L (≈ 0.128 µM)
MIC (Escherichia coli [2]): 0.025 mg/L (≈ 0.0652 µM)
MIC (Pseudomonas aeruginosa [3]): 0.195 mg/L (≈ 0.509 µM)
clearance [5]: 3.12 L/h/kg
MIC (Staphylococcus aureus [8]): 0.195 mg/L (≈ 0.509 µM)
MIC (Pseudomonas aeruginosa [9]): 0.195 mg/L (≈ 0.509 µM)
MIC50 (Streptococcus pneumoniae [33]): 0.5 mg/L (≈ 1.3 µM)
MIC90 (Streptococcus pneumoniae [33]): 0.5 mg/L (≈ 1.3 µM)
MIC50 (Moraxella catarrhalis [36]): 0.008 mg/L (≈ 0.0209 µM)
MIC90 (Moraxella catarrhalis [36]): 0.008 mg/L (≈ 0.0209 µM)
clearance [12]: 0.42 L/h/kg
MIC (Enterobacter cloacae): 0.025 mg/L (≈ 0.0652 µM)
MIC50 (Pseudomonas aeruginosa [13]): 2 mg/L (≈ 5.22 µM)
MIC90 (Pseudomonas aeruginosa [13]): 16 mg/L (≈ 41.7 µM)
MIC (Streptococcus pyogenes): 0.013 mg/L (≈ 0.0339 µM)
AUC [14]: 6.38 µg·h/mL
MIC (Escherichia coli [15]): 0.025 mg/L (≈ 0.0652 µM)
MIC50 (Klebsiella pneumoniae [37]): 0.03 mg/L (≈ 0.0782 µM)
MIC90 (Klebsiella pneumoniae [37]): 0.06 mg/L (≈ 0.156 µM)
AUC [17]: 11.6 µg·h/mL
MIC (Salmonella typhimurium): 0.049 mg/L (≈ 0.128 µM)
MIC (Klebsiella aerogenes): 0.049 mg/L (≈ 0.128 µM)
